These results are taken from patent publication US11160797B2, “Pyridinone derivatives and their use as selective ALK-2 inhibitors” (NOVARTIS AG, priority 2017, dated 2021).

pIC50: −log10 of the molar value.

In experiment [1] the target is ALK2 FOP mutant (aa172-499 R206H) (Homo sapiens (Human), UniProt Q04771, R206H). The experiment can be described thus: Caliper biochemical peptide phosphorylation assay, ALK2 FOP. The conditions noted are these: Caliper peptide phosphorylation, R206H, 15 uM ATP; read-out: ALK2 FOP EPK IC50.
Chain of ALK2 FOP mutant (aa172-499 R206H) (Q04771 172-499 R206H): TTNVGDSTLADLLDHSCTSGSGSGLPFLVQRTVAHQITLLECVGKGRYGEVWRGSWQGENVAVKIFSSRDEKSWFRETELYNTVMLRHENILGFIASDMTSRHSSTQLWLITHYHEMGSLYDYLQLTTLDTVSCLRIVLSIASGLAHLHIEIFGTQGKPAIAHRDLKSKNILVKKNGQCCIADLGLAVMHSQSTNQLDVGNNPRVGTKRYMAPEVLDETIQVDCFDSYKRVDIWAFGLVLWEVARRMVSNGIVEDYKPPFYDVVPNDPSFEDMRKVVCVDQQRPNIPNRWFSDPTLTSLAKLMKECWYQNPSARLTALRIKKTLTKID
The target of a further experiment is ALK5 (aa162-503) (Homo sapiens (Human), UniProt P36897). The experiment can be described thus: Caliper biochemical peptide phosphorylation assay, ALK5. Conditions: 15 uM ATP. From the text: For all biochemical assays, human recombinant proteins were expressed in and purified from baculo virus transfected insect cells. The constructs comprised the GS-domain and kinase domain of wild-type ALK2 (aa172-499), ALK2 FOP mutant (aa172-499 R206H), ALK3 (aa198-525), ALK5 (aa162-503) and ALK6 (aa168-495).
Chain of ALK5 (aa162-503) (P36897 162-503): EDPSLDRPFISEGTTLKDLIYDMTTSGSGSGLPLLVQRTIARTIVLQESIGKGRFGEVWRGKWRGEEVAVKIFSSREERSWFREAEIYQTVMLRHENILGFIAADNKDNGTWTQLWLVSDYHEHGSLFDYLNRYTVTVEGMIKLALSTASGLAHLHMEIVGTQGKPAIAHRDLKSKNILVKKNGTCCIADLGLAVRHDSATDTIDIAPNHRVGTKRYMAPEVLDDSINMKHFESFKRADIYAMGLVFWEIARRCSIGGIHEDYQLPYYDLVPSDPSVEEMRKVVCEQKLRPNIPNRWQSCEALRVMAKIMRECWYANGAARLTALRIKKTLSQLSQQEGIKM
A kinase selectivity panel which measures substrate peptide phosphorylation was set-up for wild-type ALK2 (aa172-499), ALK2 FOP mutant (aa172-499 R206H), ALK1 (aa166-493), ALK5 (aa162-503) and ALK6 (aa168-495). The technology used for the described assay is based on the separation and quantification of substrate and product in an electrical field. In the course of the kinase reaction the peptide substrate is phosphorylated by a kinase. […] Due to this difference in charge the phosphorylated und unphosphorylated peptides migrate with different velocities in an electrical field.
In the applied method, this separation takes place inside a chip that contains a complex capillary system for simultaneous analysis of 12 samples (“LabChip EZ Reader 12-sipper chip”, Caliper Technologies Corp., Mountain View, USA). In order to allow the detection and quantification of the peptides in the capillary system, the peptides carry a fluorescent label (fluorescein). With this label the peptides can be quantified by fluorescence intensity through the instruments laser and detection system (LC3000, Caliper Life Sciences).
The assays were performed in 384-well, low volume microtiter assay plates in a final reaction volume of 9 ul. Dose-response curves were generated by incubating 10 nM of each kinase together with 2 uM of the fluorescently labeled substrate peptide 5-Fluo-Ahx-[…]-T-[…]-amid (10 mM stock solution in DMSO) in 50 mM Hepes pH 7.5, 0.02% Tween 20, 0.02% BSA, 1 mM DTT, 10 uM Na3VO4, 10 mM ß-Glycerolphosphate, 1 mM MgCl2, 12 mM MnCl2 (ALK1 and ALK6 7 mM) and 15 uM ATP for 60 min at 30° C. in the presence or absence of compound diluted in DMSO.
Kinase reactions were terminated by adding 15 ul STOP buffer (100 mM HEPES pH 7.5, 5% DMSO, 0.1% Caliper coating reagent, 10 mM EDTA, and 0.015% Brij35.
Plates with terminated kinase reactions were transferred to the Caliper LC3000 workstation (Caliper Technologies Corp., Mountain View, USA) for reading. The relative amount of phosphorylated peptide r, was calculated using the heights of the substrate peak, s, and the product peak, p:r=p/(p+s).
IC50 values for a given antagonist correspond to the compound concentration needed to inhibit half of the maximum signal of the kinase reaction.

For another experiment, the target named is ALK6 (aa168-495) (Homo sapiens (Human), UniProt O00238). The experiment is described as follows: Caliper biochemical peptide phosphorylation assay, ALK6. Conditions: 15 uM ATP.
Chain of ALK6 (aa168-495) (O00238 168-495): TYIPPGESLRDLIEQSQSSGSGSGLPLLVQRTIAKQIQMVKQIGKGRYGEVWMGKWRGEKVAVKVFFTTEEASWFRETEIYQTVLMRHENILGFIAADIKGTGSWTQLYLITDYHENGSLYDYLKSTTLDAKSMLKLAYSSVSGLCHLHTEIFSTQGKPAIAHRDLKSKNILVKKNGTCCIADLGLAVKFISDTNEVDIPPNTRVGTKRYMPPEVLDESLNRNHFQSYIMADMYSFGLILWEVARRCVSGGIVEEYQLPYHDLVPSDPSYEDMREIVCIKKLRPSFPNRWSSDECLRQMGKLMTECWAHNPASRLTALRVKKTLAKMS
The test system of experiment [2] is HuH7 cells, BMP response element (BRE) luciferase reporter, BMP6 stimulated. The experiment can be described thus: BMP signaling reporter gene assay. The format is cell-based. The conditions noted are these: Homo sapiens, Huh-7; BMP6 100 ng/ml; read-out: MSD HuH7 cell BMP reporter IC50.
Procedure: A human liver hepatocellular carcinoma cell line (HuH7) stably transfected with a reporter plasmid consisting of the human BMP response element (BRE) from the Id1 promoter fused to a luciferase reporter gene was generated through lentiviral transduction.
Assays were performed in 384-well flat bottom polystyrene microtiter plates (cell culture treated) with sterile lids. The cells were starved through medium exchange in Blasticidine- and FCS-free medium 16 h before the assay. Prior to the assay, cells were detached from the stock flask using trypsin/EDTA and counted. A cell suspension in the same medium without Blasticidin and FCS was prepared. 2×10^4 cells in a total volume of 40 ul were added to each well of a plate already containing serial dilutions of each compound in DMSO (final DMSO concentration 0.5%). […] Assay plates are incubated for another 5 hours at 37° C., 5% CO2 before luciferase levels are measured.
The amount of expressed luciferase is quantified using the Steady-Glo® Luciferase Assay System (Promega #E2520).
For experiment [3], the target named is T1, wild-type ALK2 (aa172-499) (Homo sapiens (Human), UniProt Q04771). The experiment can be described thus: ADPGlo biochemical autophosphorylation assay, ALK2. The conditions noted are these: 15 uM ATP. A general note: ADP-Glo first removes unused ATP, then detects ADP through luciferase.
T1 sequence (Q04771 172-499): as the sequence (Q04771 172-499 R206H) above, with H35R counted along it
Experiment [4] concerns the target T1, wild-type ALK2 (aa172-499). The experiment can be described thus: Caliper biochemical peptide phosphorylation assay, ALK2. The conditions noted are these: Caliper peptide phosphorylation, 15 uM ATP; read-out: ALK2 IC50.
In a further experiment the target is ALK3 (aa198-525) (Homo sapiens (Human), UniProt P36894). The experiment can be described thus: ADPGlo biochemical autophosphorylation assay, ALK3. The conditions noted are these: 15 uM ATP.
Chain of ALK3 (aa198-525) (P36894 198-525): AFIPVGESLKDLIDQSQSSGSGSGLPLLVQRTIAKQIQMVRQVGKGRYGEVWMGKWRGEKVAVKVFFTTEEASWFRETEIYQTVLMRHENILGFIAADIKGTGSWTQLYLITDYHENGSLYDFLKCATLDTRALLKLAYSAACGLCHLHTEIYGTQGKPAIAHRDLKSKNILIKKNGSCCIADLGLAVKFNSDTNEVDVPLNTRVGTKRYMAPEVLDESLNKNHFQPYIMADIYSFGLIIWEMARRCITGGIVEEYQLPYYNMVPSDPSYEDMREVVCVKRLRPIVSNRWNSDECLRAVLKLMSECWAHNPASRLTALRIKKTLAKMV
The next experiment has as its target ALK1 (aa166-493) (Homo sapiens (Human), UniProt P37023). The experiment can be described thus: Caliper biochemical peptide phosphorylation assay, ALK1. The conditions noted are these: 15 uM ATP.

Chain of ALK1 (aa166-493) (P37023 166-493): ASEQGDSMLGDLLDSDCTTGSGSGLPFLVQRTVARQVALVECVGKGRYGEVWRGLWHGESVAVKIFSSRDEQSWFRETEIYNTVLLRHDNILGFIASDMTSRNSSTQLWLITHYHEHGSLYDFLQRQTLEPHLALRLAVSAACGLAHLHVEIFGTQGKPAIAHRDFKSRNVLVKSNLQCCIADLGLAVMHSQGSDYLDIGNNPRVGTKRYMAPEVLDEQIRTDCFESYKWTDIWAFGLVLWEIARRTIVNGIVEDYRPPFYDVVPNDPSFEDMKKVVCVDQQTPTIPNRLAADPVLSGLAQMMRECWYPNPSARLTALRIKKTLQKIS

In general, pIC50 refers to −log10 of the IC50, conventionally taken in molar units. For the compound `CN1C(=O)Cc2cc(-c3cncc(-c4ccc(=O)n(CC(F)(F)F)c4)c3)ccc21` [Example 12, 1-methyl-5-(6′-oxo-1′-(2,2,2-trifluoroethyl)-1′,6′-dihydro-[3,3′-bipyridin]-5-yl)indolin-2-one], the pIC50 is 6.09 in experiment [1]; under 5.00 at ALK5 (aa162-503); 5.15 on ALK6 (aa168-495); 6.10 in experiment [2]; 5.82 in experiment [3]; 6.10 in experiment [4]. The pIC50 against ALK3 (aa198-525) is under 4.82; against ALK1 (aa166-493), 5.17.

In the case of `CN1C(=O)Cc2cc(-c3cncc(-c4ccc(=O)n(C5CCC5)c4)c3)ccc21` [Example 6, 5-(1′-Cyclobutyl-6′-oxo-1′,6′-dihydro-[3,3′-bipyridin]-5-yl)-1-methylindolin-2-one], the pIC50 in experiment [1] was 6.74; at ALK5 (aa162-503), 5.28; at ALK6 (aa168-495), 5.54; in experiment [2], 6.18; in experiment [3] it was 6.64; in experiment [4], 6.82. The pIC50 against ALK3 (aa198-525) was 5.44; on ALK1 (aa166-493), 5.77.

As to `CC(C)n1cc(-c2nc(-c3ccc4c(c3)CC(=O)N4C)cnc2N)ccc1=O` [Example 43, 5-(5-amino-6-(1-isopropyl-6-oxo-1,6-dihydropyridin-3-yl)pyrazin-2-yl)-1-methylindolin-2-one], the negative-log IC50 (pIC50) was 7.05 in experiment [1]; 6.00 at ALK5 (aa162-503); 5.70 against ALK6 (aa168-495); 6.92 in experiment [2]; 7.05 in experiment [3]; 7.00 in experiment [4]. Besides, the pIC50 on ALK3 (aa198-525) was 6.22; against ALK1 (aa166-493), 6.28.

As for `CN1C(=O)Cc2cc(-c3cncc(-c4ccc(=O)n(C5CCCCO5)c4)c3)ccc21` (centres unmarked) [Example 18, 1-methyl-5-(6′-oxo-1′-(tetrahydro-2H-pyran-2-yl)-1′,6′-dihydro-[3,3′-bipyridin]-5-yl)indolin-2-one], the pIC50 in experiment [1] was 6.22; against ALK5 (aa162-503), under 5.00; on ALK6 (aa168-495), under 5.00; in experiment [2] it was 6.38; in experiment [3], 6.00; in experiment [4], 6.15. In addition, the pIC50 against ALK3 (aa198-525) is under 4.82; on ALK1 (aa166-493), 5.33.

As to `CC(C)n1cc(-c2cncc(-c3cnc4c(c3)CCC(=O)N4C)c2)ccc1=O` [Example 37, 6-(1′-Isopropyl-6′-oxo-1′,6′-dihydro-[3,3′-bipyridin]-5-yl)-1-methyl-3,4-dihydro-1,8-naphthyridin-2(1H)-one], the pIC50 in experiment [1] was 6.62; at ALK5 (aa162-503), under 5.00; at ALK6 (aa168-495), 5.27; in experiment [2] it was 6.52; in experiment [3] it was 6.54; in experiment [4], 6.62. For the same compound, the results for the pIC50 against ALK3 (aa198-525) and on ALK1 (aa166-493) were 5.60 and 5.77, respectively.

For `CC(C)n1cc(-c2cncc(-c3cc(F)c4c(c3)CC(=O)N4C)c2)ccc1=O` [Example 36, 7-Fluoro-5-(1′-isopropyl-6′-oxo-1′,6′-dihydro-[3,3′-bipyridin]-5-yl)-1-methylindolin-2-one], the pIC50 was 6.64 in experiment [1]; 5.03 against ALK5 (aa162-503); 5.54 on ALK6 (aa168-495); 6.41 in experiment [2]; 6.46 in experiment [3]; 6.72 in experiment [4]. In addition, the results for the pIC50 on ALK3 (aa198-525) and at ALK1 (aa166-493) were 5.62 and 5.89, respectively.

As to `CN1C(=O)Cc2cc(-c3cncc(-c4ccc(=O)n(CC5CCC5)c4)c3)ccc21` [Example 11, 5-(1′-(cyclobutylmethyl)-6′-oxo-1′,6′-dihydro-[3,3′-bipyridin]-5-yl)-1-methylindolin-2-one], the pIC50 in experiment [1] was 6.33; against ALK5 (aa162-503), under 5.00; against ALK6 (aa168-495), under 5.00; in experiment [2] it was 6.19; in experiment [3] it was 6.22; in experiment [4] it was 6.31. In addition, the pIC50 against ALK3 (aa198-525) was 5.10; against ALK1 (aa166-493), 5.33.

With `CCCN1C(=O)Cc2cc(-c3cncc(-c4ccc(=O)n(C(C)C)c4)c3)ccc21` [Example 25, 5-(1′-Isopropyl-6′-oxo-1′,6′-dihydro-[3,3′-bipyridin]-5-yl)-1-propylindolin-2-one], the pIC50 is 7.15 in experiment [1]; 5.82 against ALK5 (aa162-503); 6.00 at ALK6 (aa168-495); 7.05 in experiment [2]; 7.00 in experiment [3]; 7.10 in experiment [4]. Further, the results for the pIC50 against ALK3 (aa198-525) and on ALK1 (aa166-493) were 6.31 and 6.27, respectively.

`CC(C)n1cc(-c2cncc(-c3ccc4c(c3)CC(=O)N4CCCO)c2)ccc1=O` [Example 47, 1-(3-hydroxypropyl)-5-(1′-isopropyl-6′-oxo-1′,6′-dihydro-[3,3′-bipyridin]-5-yl)indolin-2-one]: the pIC50 in experiment [1] was 6.82; against ALK5 (aa162-503) it was 5.38; against ALK6 (aa168-495), 5.82; in experiment [2] it was 6.55; in experiment [3], 6.76; in experiment [4] it was 6.85. Also, the pIC50 at ALK3 (aa198-525) was 5.95; on ALK1 (aa166-493) it was 5.96.

Take `CN1C(=O)Cc2cc(-c3cncc(-c4ccc(=O)n(C5CCCC5)c4)c3)ccc21` [Example 8, 5-(1′-cyclopentyl-6′-oxo-1′,6′-dihydro-[3,3′-bipyridin]-5-yl)-1-methylindolin-2-one]: the pIC50 in experiment [1] is 6.92; on ALK5 (aa162-503), 5.02; against ALK6 (aa168-495), 5.28; in experiment [2], 6.82; in experiment [3] it was 6.70; in experiment [4], 6.77. Also, the pIC50 was 5.62 on ALK3 (aa198-525) and 5.82 against ALK1 (aa166-493).

As for `COc1cc(-c2cncc(-c3ccc4c(c3)CC(=O)N4C)c2)cn(C(C)C)c1=O` [Example 2, 5-(1′-Isopropyl-5′-methoxy-6′-oxo-1′,6′-dihydro-[3,3′-bipyridin]-5-yl)-1-methylindolin-2-one], the pIC50 in experiment [1] was 7.22; against ALK5 (aa162-503) it was 6.21; at ALK6 (aa168-495), 6.03; in experiment [2], 7.30; in experiment [3], 7.06; in experiment [4], 7.10. Also, the pIC50 against ALK3 (aa198-525) was 6.28; at ALK1 (aa166-493), 6.39.

Take `CN1C(=O)Cc2cc(-c3cncc(-c4ccc(=O)n(C)c4)c3)ccc21` [Example 19, 1-methyl-5-(1′-methyl-6′-oxo-1′,6′-dihydro-[3,3′-bipyridin]-5-yl)indolin-2-one]: the pIC50 was 6.09 in experiment [1]; under 5.00 against ALK5 (aa162-503); 5.03 on ALK6 (aa168-495); 5.72 in experiment [2]; 5.66 in experiment [3]; 6.13 in experiment [4]. Moreover, the pIC50 on ALK3 (aa198-525) was 5.27; against ALK1 (aa166-493), 5.38.

For the compound `CCC1C(=O)N(C)c2ccc(-c3cncc(-c4ccc(=O)n(C(C)C)c4)c3)cc21` (centres unmarked) [Example 22, 3-Ethyl-5-(1′-isopropyl-6′-oxo-1′,6′-dihydro-[3,3′-bipyridin]-5-yl)-1-methylindolin-2-one], the pIC50 in experiment [1] was 6.47; on ALK5 (aa162-503) it was under 5.00; on ALK6 (aa168-495) it was 5.56; in experiment [2], 6.27; in experiment [3] it was 6.14; in experiment [4], 6.41. For the same compound, the pIC50 against ALK3 (aa198-525) was 5.38; at ALK1 (aa166-493) it was 5.66.
